Source: patent US5573926A, “Process for obtaining aroma components and aromas from their precursors of a glycosidic nature, and aroma components and aromas thereby obtained” (Gist-brocades, N.V., priority 1989, dated 1996)
Each block holds one molecule with its values, some of them ahead of it.

Tests used:
α-arabinosidase [1] = assay: Enzymatic hydrolysis of the muscat glycosidic extract by α-arabinosidase (GC); format: biochemical; conditions: for GC peak of the glycosidic extract after incubation with α-arabinosidase / Terpene monoglucosides liberated by α-arabinosidase from a glycosidic extract: 0.15 nkat, 40° C., 16 h; for Compounds appearing after action of α-arabinosidase: HPLC-collected peak, appears together with arabinose; for % of monoglucosides (liberated by the two enzymes together): sum of α-arabinosidase and α-rhamnosidase
Procedure: (§1) 40 μl of glycosidic extract and 60 μl of a solution of Glc-pNP (internal standard) at a concentration of 50 mg/1 in ethyl acetate are introduced into a suitable flask. The mixture is taken to dryness at 40° C. with a stream of nitrogen. 40 μl of the silylating reagent (Tri-sil, Pierce, Rockford, Ill., U.S.A.) are then introduced; the flask is sealed and maintained at 40° C. for 20 minutes. After rapid cooling, the silylated sample is then ready for analysis by GC.
(§2) The apparatus used consists of a Series 30C gas chromatograph, an "on-column" injector (injected volume 0.5 μl) and a flame ionization detector (Girdel, France). A thin film (0.20 μm) of an OV-1 (Girdel) apolar silicone phase is grafted onto the inner wall of the capillary column ([…].). The oven temperature is programmed from 125 to 305° C. at the rate of 5° C./minute, then maintained at 305° C. for 15 minutes. Finally, the detector temperature is set at 300° C. and hydrogen is used as the carrier gas at a pressure of 120 kPa.
(§3) The experimental protocols for the enzymatic hydrolysis on the glycosidic extract are collated in Table 3. […]

[2] = test system: α-arabinosidase and then β-glucosidase; assay: Sequential hydrolysis by α-arabinosidase and then β-glucosidase (GC of sugars, glucosides, terpenols); format: biochemical; conditions: HPLC-collected peak; appears together with glucose
Procedure: The monoterpene alcohols studied here are sufficiently volatile to be chromatographed as they are. To the pentane extract containing them, the internal standard, 4-nonanol (for synthesis, Merck, Darmstadt, FRG) is added in the proportion of 1 μl of a solution at a concentration of 2.89 mg/ml in pentane per 50 μl of medium. The mixture is then dried over sodium sulphate, filtered through glass wool and then concentrated to a volume in the region of 100 μl For this purpose, the pentane is first removed using a conventional still, and then a Dufton type column of a size suited to the volume remaining to be concentrated.
The constituents of the concentrated extract are separated using a capillary column (25 m×0.32 mm I.D.) containing a CP wax 52 CB (Chrompack, Middelburg, Netherlands) polar phase. The grafted polyethylene glycol film was selected thick (1.28 μm) in order to permit the injection of large sample volumes, up to 4 μl. […]
Furthermore, each fraction was subjected to the sequential action of α-arabinosidase and then β-glucosidase. At the end of each stage and according to the procedures described, the incubated medium was analysed by GC in order to test for sugars and glucosides on the one hand, and for terpenols on the other hand. […]

β-apiosidase = assay: Enzymatic hydrolysis of Api-Glc-Ger by β-apiosidase present in Klerzyme 200 (TLC); format: biochemical
Procedure: The β-apiosidase present in a commercial enzyme preparation (Klerzyme 200, Gist-brocades, France) was used without further purification.
(§4) Thin-layer adsorption chromatography was carried out on pieces of aluminium foil covered with a thin layer (0.2 mm) of silica gel (5553 Silica gel 60 without a fluorescence indicator, Merck). An ethyl acetate/isopropanol/water (65:30:10 v/v/v) mixture was used as a migration solvent.
(§5) The sugars and the glycosides are visualized by means of the following mixture, prepared immediately before use: 0.2% naphthoresorcinol in ethanol/concentrated sulphuric acid (19:1 v/v). The application of this visualizing agent is followed by drying the plates in the oven (105° C.) for 15 minutes. Apart from their migration distance, the various compounds are also distinguished by their colour. The glycosides are purple-red, the arabinosides are bluish, the apiosides are green, rhamnose greenish pink, arabinose blue, apiose green and glucose pink.
(§6) In all the tests relating to the enzymatic hydrolysis of the synthetic substrates, the same glycosidase activity (0.15 nkat) is used for each of the enzymes (α-arabinosidase, apiosidase, α-rhamnosidase, β-glucosidase).

α-arabinosidase [3] = assay: Enzymatic hydrolysis of synthetic substrates by α-arabinosidase (TLC); format: biochemical; conditions: 0.15 nkat, 40° C., 90 min, pH 4.2
Procedure: as §4, §5, §6
(§7) The hydrolysis and analysis protocols are given in plan form (Table 2). […]

[4] = Enzymatic hydrolysis of a glycosidic extract in natural media (must, dry wine) by Hemicellulase REG2 + Naringinase; format: biochemical; conditions: 25° C., 86 hours
Procedure: The enzymatic hydrolysis of a glycosidic extract incorporated, on the one hand into a natural medium (must or dry wine), and on the other hand into a reference medium (buffer), by the action of commercial preparations containing the requisite three glycosidases, was studied.
A juice and a wine of a vine variety not containing terpenols and terpene glycosides, but enriched beforehand with a known amount of glycosidic extract of muscat, are treated with commercial enzyme preparations. The media, as well as controls, are incubated at 25° C. for 86 hours (see the experimental protocol plan below). They are then passed through a column of Amberlite XAD-2 according to the protocol applied for the production of the glycosidic extract, and the terpenols are assayed by GC.

β-glucosidase [5] = assay: Second stage: consecutive action of β-glucosidase on the pre-incubated glycosidic extract (GC); format: biochemical, sweet almond; conditions: 0.15 nkat, 40°, 16 h
Procedure: as §1, §2, §3

[6] = target: T1, β-glucosidase (originating from the yeast Candida wickerhamii CBS 2928) (Nakazawaea wickerhamii, UniProt Q12601); assay: Hydrolysis of monoglucosides in naturally sweet wines by Candida wickerhamii β-glucosidase; format: biochemical
T1 sequence (Q12601 20-609): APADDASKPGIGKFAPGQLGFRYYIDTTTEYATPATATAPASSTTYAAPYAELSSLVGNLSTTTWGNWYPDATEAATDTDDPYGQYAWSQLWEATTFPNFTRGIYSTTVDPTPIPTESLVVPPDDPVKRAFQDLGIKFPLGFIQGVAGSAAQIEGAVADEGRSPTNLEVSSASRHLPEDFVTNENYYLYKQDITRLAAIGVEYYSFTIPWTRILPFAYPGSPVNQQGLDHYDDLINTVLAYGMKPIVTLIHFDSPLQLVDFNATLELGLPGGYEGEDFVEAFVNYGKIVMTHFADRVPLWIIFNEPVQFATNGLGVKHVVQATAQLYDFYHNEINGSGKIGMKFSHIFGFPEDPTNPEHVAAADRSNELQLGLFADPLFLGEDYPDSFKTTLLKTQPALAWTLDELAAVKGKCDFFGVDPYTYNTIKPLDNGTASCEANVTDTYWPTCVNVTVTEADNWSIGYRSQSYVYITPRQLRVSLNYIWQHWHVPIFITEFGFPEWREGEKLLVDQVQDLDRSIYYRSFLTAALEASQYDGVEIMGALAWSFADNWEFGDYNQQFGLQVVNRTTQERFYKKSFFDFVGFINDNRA

β-glucosidase [7] = assay: Enzymatic hydrolysis of synthetic substrates by β-glucosidase (TLC, pNP liberated, GC); format: biochemical, sweet almond; conditions: media previously incubated with α-arabinosidase or α-rhamnosidase; 0.15 nkat, 40° C., 90 min
Procedure: as §5, with “An ethyl acetate/isopropanol/water (65:30:10 v/v/v) mixture was used as a migration solvent. The sugars” for “The sugars”, “glucose pink. […] The hydrolysis and analysis protocols are given in plan form (Table 2). […]” for “glucose pink.”

α-rhamnosidase [8] = assay: Enzymatic hydrolysis of the muscat glycosidic extract by α-rhamnosidase (GC); format: biochemical; conditions: 0.15 nkat, 40° C., 16 h
Procedure: as §1, §2, §3

α-rhamnosidase [9] = assay: Enzymatic hydrolysis of synthetic substrates by α-rhamnosidase (TLC); format: biochemical; conditions: 0.15 nkat, 40° C., 90 min, pH 4.2
Procedure: as §4, §5, §6, §7

[10] = test system: β-glucosidase (originating from Aspergillus niger); assay: Inhibition of β-glucosidase activity by glucose in must and sweet wine; format: biochemical

SMILES: CC(C)=CCC/C(C)=C/CO[C@@H]1O[C@H](CO[C@@H]2OC[C@](O)(CO)[C@H]2O)[C@@H](O)[C@H](O)[C@H]1O [Api-Glc-Ger, geranyl β-D-apiofuranosyl-(1→6)-β-D-glucopyranoside]
hydrolysis by β-apiosidase present in Klerzyme 200 (TLC) (β-apiosidase): disappearance of the substrate and the appearance of apiose and glucose

SMILES: O=[N+]([O-])c1ccc(O[C@@H]2O[C@H](CO[C@@H]3O[C@@H](CO)[C@H](O)[C@H]3O)[C@@H](O)[C@H](O)[C@H]2O)cc1 [Ara-Glc-pNP, p-Nitrophenyl 6-O-(α-L-arabinofuranosyl)-β-D-glucopyranoside]
hydrolysis by α-arabinosidase (TLC) (α-arabinosidase [3]): disappearance of this substrate and the appearance of arabinose and Glc-pNP

SMILES: OCc1ccccc1 [Benzyl alcohol]
Compounds liberated relative to the reference medium ([4]; MUST (pH 3.4, sugars 180 g/l)): 46%
Compounds liberated relative to the reference medium ([4]; WINE (dry white, pH 3.1)): 50%

SMILES: O=[N+]([O-])c1ccc(O[C@@H]2O[C@H](CO)[C@@H](O)[C@H](O)[C@H]2O)cc1 [Glc-pNP, p-nitrophenyl β-D-glucopyranoside, reference compound]
consecutive action of β-glucosidase (second stage, TLC) (β-glucosidase [7]): disappearance of Glc-Ger and Glc-pNP and the appearance of glucose

SMILES: C[C@@H]1O[C@@H](OC[C@H]2O[C@@H](Oc3ccc([N+](=O)[O-])cc3)[C@H](O)[C@@H](O)[C@@H]2O)[C@H](O)[C@H](O)[C@H]1O [Rha-Glc-pNP]
hydrolysis by α-rhamnosidase (TLC) (α-rhamnosidase [9]): disappearance of these substrates

SMILES: OC[C@H]1OC(O)[C@H](O)[C@@H](O)[C@@H]1O (stereo partly shown) [glucose]
effect on β-glucosidase activity ([10]; glucose 30 g/l in naturally sweet wines): inhibiting β-glucosidase
effect on β-glucosidase activity ([10]; glucose present in large amounts in the must): inhibition of the β-glucosidase activity

Now from value to molecule, other results behind:

GC peak of the glycosidic extract after incubation with α-arabinosidase (α-arabinosidase [1]): disappear completely
Compounds appearing after action of α-arabinosidase (α-arabinosidase [1]): Glc--Ger
Compounds appearing after action of α-arabinosidase and then β-glucosidase [2]: geraniol
SMILES: CC(C)=CCC/C(C)=C/CO[C@@H]1O[C@H](CO[C@@H]2O[C@@H](CO)[C@H](O)[C@H]2O)[C@@H](O)[C@H](O)[C@H]1O (single isomer, unassigned) [Ara-Glc-Ger, Geranyl 6-O-(α-L-arabinofuranosyl)-β-D-glucopyranoside]

GC peak of the glycosidic extract after incubation with α-arabinosidase (α-arabinosidase [1]): disappear completely
Compounds appearing after action of α-arabinosidase (α-arabinosidase [1]): Glc--Ner
Compounds appearing after action of α-arabinosidase and then β-glucosidase [2]: nerol
SMILES: CC(C)=CCC/C(C)=C\CO[C@@H]1O[C@H](CO[C@@H]2O[C@@H](CO)[C@H](O)[C@H]2O)[C@@H](O)[C@H](O)[C@H]1O [Ara-Glc-Ner, neryl a-L-arabinofuranosyl-(1→6)-β-D-glucopyranoside]

hydrolysis by consecutive action of β-glucosidase (second stage, GC) (β-glucosidase [5]): disappearance
Terpene monoglucosides liberated by α-arabinosidase from a glycosidic extract (α-arabinosidase [1]): 39%
% of monoglucosides (liberated by the two enzymes together) (α-arabinosidase [1]): 48%
hydrolyzed by Candida wickerhamii β-glucosidase ([6]; pH 3.6): 45%
hydrolyzed by Candida wickerhamii β-glucosidase ([6]; pH 4.0): two thirds
Terpene monoglucosides liberated by α-rhamnosidase from a glycosidic extract (α-rhamnosidase [8]): 9%
SMILES: CC(C)=CCC/C(C)=C/CO[C@@H]1O[C@H](CO)[C@@H](O)[C@H](O)[C@H]1O [Glc-Ger, geranyl β-D-glucopyranoside]
consecutive action of β-glucosidase (second stage, TLC) (β-glucosidase [7]): disappearance of Glc-Ger and Glc-pNP and the appearance of glucose

hydrolysis by consecutive action of β-glucosidase (second stage, GC) (β-glucosidase [5]): disappearance
Terpene monoglucosides liberated by α-arabinosidase from a glycosidic extract (α-arabinosidase [1]): 28%
% of monoglucosides (liberated by the two enzymes together) (α-arabinosidase [1]): 33%
hydrolyzed by Candida wickerhamii β-glucosidase ([6]; pH 3.6): 19%
hydrolyzed by Candida wickerhamii β-glucosidase ([6]; pH 4.0): two thirds
Terpene monoglucosides liberated by α-rhamnosidase from a glycosidic extract (α-rhamnosidase [8]): 5%
SMILES: CC(C)=CCC/C(C)=C\CO[C@@H]1O[C@H](CO)[C@@H](O)[C@H](O)[C@H]1O [Glc-Ner, neryl β-D-glucopyranoside]

Compounds liberated relative to the reference medium ([4]; MUST (pH 3.4, sugars 180 g/l)): 9%
Compounds liberated relative to the reference medium ([4]; WINE (dry white, pH 3.1)): 14%
SMILES: C=CC(C)(O)CCC=C(C)C (stereo not shown) [Linalol]

hydrolysis by α-rhamnosidase (TLC) (α-rhamnosidase [9]): disappearance of these substrates
GC peak of the glycosidic extract after the action of α-rhamnosidase (α-rhamnosidase [8]): decreases
SMILES: CC(C)=CCC/C(C)=C/CO[C@@H]1O[C@H](CO[C@@H]2O[C@@H](C)[C@H](O)[C@@H](O)[C@H]2O)[C@@H](O)[C@H](O)[C@H]1O [Rha-Glc-Ger, Geranyl 6-O-(α-L-rhamnopyranosyl)-β-D-glucopyranoside]
